The results in this text go back to US20100022559A1, “BISOXIMES AS FUNGICIDES” (BAYER CROPSCIENCE AG, priority 2006, published 2010).

A short description of one data set: logP determination by HPLC on a reversed-phase column (C 18), EEC Directive 79/831 Annex V.A8. Particulars: value marked [a]. It is filed as physicochemical. As to the method: The stated logP values were determined in accordance with EEC Directive 79/831 Annex V.A8 by HPLC (high performance liquid chromatography) on a reversed-phase column (C 18). Temperature: 43° C.
For `CC(=NOCCCCON=C(C)c1cccc(C)n1)c1ccc2ccccc2c1` [compound 445], the logP was 5.72^[a].

As to `CC(=NOCC(C)CON=C(C)c1cccc(C)n1)c1ccc2c(c1)CC(C)O2` (centres unmarked) [compound 494], the logP is 5.27^[a].

The data set is the same for the next values; noted with them: value marked [b].
Regarding `CC(=NOCC(C)(C)CON=C(C)c1cccc(C)n1)c1cccnc1` [compound 418], the logP is 2.80^[b]. Take `CC(=NOCC(C)(C)CON=C(C)c1cccc(C)n1)c1ccccc1` [compound 419]: the logP was 5.42^[b]. With `CC(=NOCC(C)CON=C(c1ccccc1)c1ncccc1C)c1cccc(C)n1` (centres unmarked) [compound 421], the logP is 4.15^[b].

For the molecule `CC(=NOCC(C)CON=C(CC(C)C)c1ncccc1C)c1cccc(C)n1` (centres unmarked) [compound 422], the logP is 4.51^[b].

Regarding `C=CCCC(=NOCC(C)CON=C(C)c1cccc(C)n1)c1ncccc1C` (centres unmarked) [compound 424], the logP is 4.10^[b]. Consider `CCC(=NOCC(C)CON=C(C)c1cccc(C)n1)c1ncccc1C` (centres unmarked) [compound 425], for which the logP was 3.99^[b]. For `CC(=NOCC(C)CON=C(C)c1cnnc(C)n1)c1cccc(C)n1` (centres unmarked) [compound 426], the logP was 3.24^[b]. Consider `CC(=NOCC(C)CON=C(C)c1ccnc(C)n1)c1cccc(C)n1` (centres unmarked) [compound 430], for which the logP was 3.56^[b]. With `CC(=NOCC(C)CON=C(C)c1cccc(C)n1)c1cncc(C)c1` (centres unmarked) [compound 431], the logP is 2.37^[b]. As for `CC(=NOCC(C)CON=C(C)c1cccc(C)n1)c1ccnc(C)c1` (centres unmarked) [compound 432], the logP was 1.80^[b].

As for `CC(=NOCC(C)CON=C(C)c1cccc(C)n1)c1cccc(C(F)(F)F)c1` (centres unmarked) [compound 433], the logP was 5.71^[b]. The same measure, in the same setting: next, `CC(=NOCC(C)CON=C(C)c1nc(C)c(C)s1)c1cccc(C)n1` (centres unmarked) [compound 434]: 4.85^[b]; `CC(=NOCC(C)CON=C(C)c1cccc(C)n1)c1ccc2c(c1)OCO2` (centres unmarked) [compound 435]: 4.57^[b]. Consider `CC(=NOCC(C)CON=C(C)c1ccccc1Cl)c1cccc(C)n1` (centres unmarked) [compound 436], for which the logP was 5.08^[b]. As to `CC(=NOCC(C)CON=C(C)c1cccc2ccccc12)c1cccc(C)n1` (centres unmarked) [compound 437], the logP is 5.36^[b]. For `CC(=NOCC(C)CON=C(C)c1cccc(C)n1)c1cccnc1` (centres unmarked) [compound 438], the logP was 2.34^[b].

As to `CC(=NOCC(C)CON=C(C)c1cccc(C)n1)c1ccccc1` (centres unmarked) [compound 439], the logP is 4.91^[b]. Consider `CC(=NOCCCCON=C(C)c1cccc(C)n1)c1ccncc1` [compound 440], for which the logP was 1.88^[b].

With `CC(=NOCCCCON=C(C)c1cccc(C)n1)c1ccc2c(c1)CC(C)O2` (centres unmarked) [compound 441], the logP is 4.91^[b]. `CC(=NOCCCCON=C(C)c1cccc(C)n1)c1cccc(Cl)c1` [compound 442]: the logP is 5.54^[b]. On to `COc1cccc(C(C)=NOCCCCON=C(C)c2cccc(C)n2)c1` [compound 443], for which the logP is 4.57^[b]. In the case of `CC(=NOCCCCON=C(C)c1cccc(C)n1)c1ccc(Cl)cc1` [compound 444], the logP was 5.54^[b]. Turning to `CC(=NOCCCCON=C(C)c1ccc(Cl)s1)c1cccc(C)n1` [compound 446], the logP is 4.97^[b]. `CC(=NOCCCCON=C(C)c1cc(C)cc(C)n1)c1cccc(C)n1` [compound 447]: the logP is 2.41^[b].

Consider `CC(=NOCCCCON=C(C)c1cccnc1C)c1cccc(C)n1` [compound 448], for which the logP is 1.69^[b]. Same read-out and setting: to `COc1cc(C)nc(C(C)=NOCCCCON=C(C)c2cccc(C)n2)c1` [compound 449] belongs 3.11^[b]; to `CCCc1cccc(C(C)=NOCCCCON=C(C)c2cccc(C)n2)n1` [compound 450], 5.48^[b]. As to `CC(=NOCCCCON=C(C)c1ncccc1C)c1cccc(C)n1` [compound 451], the logP was 3.02^[b]. On the same count and under the same terms, to `CC(=NOCCCCON=C(C)c1cccc(C(C)C)n1)c1cccc(C)n1` [compound 452] belongs 5.97^[b]; to `CC(=NOCCCCON=C(C)c1cncc(C)n1)c1cccc(C)n1` [compound 453], 1.88^[b]. Still for that read-out and setting: to `CC(=NOCCCCCCON=C(C)c1cccc(C)n1)c1ccncc1` [compound 454] belongs 2.62^[b]; to `CC(=NOCCCCCCON=C(C)c1cccc(C)n1)c1ccc2c(c1)CC(C)O2` (centres unmarked) [compound 455], 5.97^[b]; to `CC(=NOCCCCCCON=C(C)c1cccc(C)n1)c1cccc(Cl)c1` [compound 456], 6.58^[b]. Same read-out and setting: to `COc1cccc(C(C)=NOCCCCCCON=C(C)c2cccc(C)n2)c1` [compound 457] belongs 5.59^[b]; to `CC(=NOCCCCCCON=C(C)c1cccc(C)n1)c1ccc(Cl)cc1` [compound 458], 6.58^[b]; to `CC(=NOCCCCCCON=C(C)c1ccc(Cl)s1)c1cccc(C)n1` [compound 459], 6.16^[b]. As to `CC(=NOCCCCCCON=C(C)c1cccnc1C)c1cccc(C)n1` [compound 461], the logP is 2.27^[b]. In the case of `COc1cc(C)nc(C(C)=NOCCCCCCON=C(C)c2cccc(C)n2)c1` [compound 462], the logP is 4.15^[b]. Turning to `CCCc1cccc(C(C)=NOCCCCCCON=C(C)c2cccc(C)n2)n1` [compound 463], the logP is 6.79^[b].

For the molecule `CC(=NOCCCCCCON=C(C)c1ncccc1C)c1cccc(C)n1` [compound 464], the logP is 4.25^[b].

As to `CC(=NOCCCCCCON=C(C)c1cccc(C(C)C)n1)c1cccc(C)n1` [compound 465], the logP is 7.12^[b]. Regarding `CC(=NOCCCCCCON=C(C)c1cncc(C)n1)c1cccc(C)n1` [compound 466], the logP is 4.8^[b]. As for `C=C(CON=C(C)c1ccncc1)CON=C(C)c1cccc(C)n1` [compound 467], the logP was 1.88^[b]. As to `C=C(CON=C(C)c1ccc2c(c1)CC(C)O2)CON=C(C)c1cccc(C)n1` (centres unmarked) [compound 468], the logP was 4.85^[b]. The same measure, in the same setting: to `C=C(CON=C(C)c1cccc(Cl)c1)CON=C(C)c1cccc(C)n1` [compound 469] belongs 5.31^[b]; to `C=C(CON=C(C)c1cccc(OC)c1)CON=C(C)c1cccc(C)n1` [compound 470], 4.46^[b]; to `C=C(CON=C(C)c1ccc(Cl)cc1)CON=C(C)c1cccc(C)n1` [compound 471], 5.48^[b]. On the same count and under the same terms, to `C=C(CON=C(C)c1ccc2ccccc2c1)CON=C(C)c1cccc(C)n1` [compound 472] belongs 5.48^[b]. As for `C=C(CON=C(C)c1cccc(C)n1)CON=C(C)c1cccc(C(C)C)n1` [compound 479], the logP was 5.78^[b]. For the molecule `C=C(CON=C(C)c1cccc(C)n1)CON=C(C)c1cncc(C)n1` [compound 480], the logP was 3.46^[b]. On to `CC(=NOCC(C)(C)CON=C(C)c1cccc(C)n1)c1ccncc1` [compound 481], for which the logP was 2.41^[b]. Same read-out and setting: next, `CC(=NOCC(C)(C)CON=C(C)c1cccc(C)n1)c1ccc2c(c1)CC(C)O2` (centres unmarked) [compound 482]: 5.65^[b]. With `COc1cccc(C(C)=NOCC(C)(C)CON=C(C)c2cccc(C)n2)c1` [compound 484], the logP was 5.31^[b]. As to `CC(=NOCC(C)(C)CON=C(C)c1cccc(C)n1)c1ccc(Cl)cc1` [compound 485], the logP was 6.22^[b].

Regarding `CC(=NOCC(C)(C)CON=C(C)c1cccnc1C)c1cccc(C)n1` [compound 488], the logP is 2.20^[b]. Turning to `CCCc1cccc(C(C)=NOCC(C)(C)CON=C(C)c2cccc(C)n2)n1` [compound 489], the logP was 6.36^[b]. With `CC(=NOCC(C)(C)CON=C(C)c1ncccc1C)c1cccc(C)n1` [compound 490], the logP was 3.89^[b].

Regarding `C/C(=N\OCC(C)(C)CO/N=C(\C)c1cncc(C)n1)c1cccc(C)n1` [compound 492], the logP is 4.41^[b]. Regarding `CC(=NOCC(C)CON=C(C)c1cccc(C)n1)c1ccncc1` (centres unmarked) [compound 493], the logP was 2.04^[b].

Turning to `CC(=NOCC(C)CON=C(C)c1cccc(C)n1)c1ccc(Cl)cc1` (centres unmarked) [compound 496], the logP is 5.78^[b]. `CC(=NOCC(C)CON=C(C)c1cccc(C)n1)c1ccc2ccccc2c1` (centres unmarked) [compound 497]: the logP was 5.84^[b]. Consider `CC(=NOCC(C)CON=C(C)c1ccc(Cl)s1)c1cccc(C)n1` (centres unmarked) [compound 498], for which the logP is 5.36^[b]. Regarding `CC(=NOCC(C)CON=C(C)c1cccnc1C)c1cccc(C)n1` (centres unmarked) [compound 500], the logP was 1.85^[b].

On to `CC(=NOCC(C)CON=C(C)c1ncccc1C)c1cccc(C)n1` (centres unmarked) [compound 503], for which the logP is 3.37^[b]. Consider `C/C(=N\OCC(C)CO/N=C(\C)c1cncc(C)n1)c1cccc(C)n1` (centres unmarked) [compound 505], for which the logP is 3.85^[b]. With `CC(=NOCC(C)CON=C(C)c1nccc(C)n1)c1cccc(C)n1` (centres unmarked) [compound 506], the logP is 2.59^[b]. In the case of `CC(=NOCC(C)CON=C(C)c1cccc(C)n1)c1cnccn1` (centres unmarked) [compound 507], the logP is 3.28^[b].

Take `CC(=NOCCCCON=C(C)c1nccc(C)n1)c1cccc(C)n1` [compound 508]: the logP is 2.37^[b]. Take `C=C(CON=C(C)c1cccc(C)n1)CON=C(C)c1nccc(C)n1` [compound 510]: the logP is 2.37^[b].

On to `CC(=NOCC(C)(C)CON=C(C)c1nccc(C)n1)c1cccc(C)n1` [compound 511], for which the logP is 3.02^[b].

Regarding `CC(=NOCCCCON=C(C)c1cccc(C)n1)c1cnccn1` [compound 512], the logP is 3.02^[b]. `CC(=NOCCCCCCON=C(C)c1cccc(C)n1)c1cnccn1` [compound 513]: the logP is 4.25^[b]. On to `C=C(CON=C(C)c1cnccn1)CON=C(C)c1cccc(C)n1` [compound 514], for which the logP is 2.98^[b].

In the case of `CC(=NOCC(C)(C)CON=C(C)c1cccc(C)n1)c1cnccn1` [compound 515], the logP was 3.70^[b]. For `C=C(CON=C(CC)c1nc(C)c(C)c(C)n1)CON=C(CC)c1nc(C)c(C)c(C)n1` [compound 516], the logP is 4.07^[b].
